One test has as its system ACC1. The test can be described thus: ACC radioactive enzyme assay (14C carbonate) from yeast cell lysates. The class given is biochemical, S. cerevisiae. As to conditions: strains of Table 13, FIG. 2. The source says: The most commonly used in vitro ACC assay is based on the usage of radioactive ^14C carbonate. The incorporation of radioactive carbonate into an acid and a non-volatile material (i.e. malonyl-CoA) is followed. The ^14C-labelled sodium bicarbonate which has not been converted to malonyl-CoA is removed by an acid and heat treatment which converts the remaining NaH14CO3 and the possible side products of the reaction into ^14C-labelled CO2.
This assay described by Diacovich et al. (2002, J. Biol. Chem. 277:31228-31236) has been used to detect ACC activity from yeast lysates (Shi et al. 2014, mBIO 5:3 e01130-14) with slight modifications. The cell lysates were prepared from yeast cells harvested during late exponential or stationary phase. The cells were washed and then resuspended in lysis buffer containing 100 mM potassium phosphate pH 7.5, 2 mM MgCl2, 1 mM dithiothreitol and 1×EDTA free Complete protease inhibitor (Roche). The cells were disrupted by glass beads and the supernatant was collected after centrifugation at 4° C. […]
The reaction was incubated at 30° C. for 15 min, and stopped by adding 50 μL of 5 M HCl. […] The ^14C content of the samples was determined using a liquid scintillation counter (PerkinElmer Tri-Carb 2810TR). […]
The radioactive ACC enzyme assay is very sensitive, even pmol/mg/min activities can be detected. […]

Test [1] has as its system S. cerevisiae VSK-128 ACS2 deletion strain. The test can be described thus: AADH in vivo growth assay, ACS2 deletion strain on glucose-based agar plates. The class given is cell-based. The source says:
All copies of the ACS2 gene were deleted from the industrial S. cerevisiae VSK-128 strain in order to generate a strain with a defective PDH-bypass that was incapable of growth on glucose-based medium. Expression vectors carrying the 25 different AADH variants were then transformed into this ACS2 deletion strain to evaluate their ability to recover the growth of this strain on glucose.
There was a good correlation between the in vitro AADH enzyme activity assays and the in vivo growth recovery analyses.

The next test concerns AADH. The test can be described thus: AADH in vitro enzyme activity assay from yeast cell lysates. The format is biochemical. Particulars: in vitro, expressed in yeast. As for the experimental part:
AADH activity was measured as described by Kozak et al. (2014, Metab. Eng. 21:46-59) by monitoring the reduction of NAD^+ at 340 nm at 30° C. The yeast cells for the cell lysates were collected, washed with water, and then resuspended into lysis buffer containing 100 mM Tris-HCl buffer (pH 7.5) and 1×EDTA free protease inhibitor cocktail (Roche). The cells were lysed with glass beads in a Precellys 24 homogenizer at 5500 rpm for 3×40 seconds and kept on ice between rounds. Lysates were centrifuged at 16 000 g for 20 min at 4° C. and supernatants were collected. The total protein concentration was determined using the Bradford method.
The enzyme assay reaction mixture contained 0.1 mM Coenzyme A, 50 mM CHES buffer (pH 9.5), 0.8 mM NAD^+, 0.2 mM DTT and 10 μL of cell extract in a total reaction volume of 200 μL. The reaction was started by adding 10 mM of freshly prepared acetaldehyde solution and reduction of NAD^+ was followed with a Thermo Konelab 20XT analyser.
Five AADH genes were originally chosen (i.e. ADHEpm, ADHEec, EUTec, EUTdz and LIN1129li) and transformed into the CEN.PK lab strain. These AADHs were expressed from a multicopy plasmid where they were under control of the TEF1 promoter.
Twenty additional novel AADH genes were chosen from the genome mining analyses to be evaluated for expression and enzyme activity in yeast.

As for “ACCyl: acetyl-CoA carboxylase of Yarrowia lipolytica CLIB122, GenBank XP_501721.1”, the “relative ranking on ACC1 activity” value in the test with ACC1 is given as “most promising candidate”.

Turning to “ADHEec: adhE type AADH of Escherichia coli K-12 substr. MG1655, GenBank NP_415757.1”, the “recovery of the growth deficiency of the ACS2-deletion strain” value in test [1] was “capable of recovering the growth deficiency”. Moreover, in the test on AADH, the AADH activity entry is listed as “showed AADH activity”.

The record behind these values is patent US10704064B2, “Recombinant yeast producing 3-hydroxypropionic acid and method for producing 3-hydroxypropionic acid using the same” (SK Innovation Co., Ltd., priority 2014, dated 2020).
